Test results reported in patent US20250277734A1, “M-MIC: Microfluidic Microbiologically Influenced Corrosion Model” (The Texas A&M University System, priority 2017, published 2025).

Tested on: Shewanella oneidensis biofilms
Assay: Biocide efficacy on S. oneidensis biofilms grown on carbon steel in single-electrode M-MIC (live/dead staining, confocal microscopy)
Format: cell-based
Settings: for increase in the percentage of dead cells: 400 ppm biocide added to 12 hour biofilm on carbon steel, after 4 hours SYTO9/propidium iodide staining, 30° C.
Description: Biofilms of Shewanella oneidensis (e.g., S. oneidensis, an iron-reducing bacterium commonly found in MIC sites) were grown on carbon steel in the single-metal system, such as M-MIC 200 as depicted in FIG. 2. In this Example 2, the single electrode comprised steel, the substrate 112 comprised glass, and the structure 104 comprised PDMS. Biofilms were developed in the system at 30° C. with a constant flow of Luria-Bertani growth medium which contained 10 g/l tryptone, 5 g/l yeast extract and 15 g/l sodium chloride being introduced at a flow rate of 0.25 mL/h. After 12 hours, flow of growth medium was stopped and 400 ppm of two common oilfield biocides, glutaraldehyde and tetrakis-hydroxymethyl-phosphonium sulfate (THPS), were added to the biofilms. After 4 hours, live and dead cells in the biofilms were stained using SYTO9 (green) and propidium iodide (red), respectively. Stained biofilms were analyzed for the percentage of live and dead cells to determine biocide efficiency. […] In addition to determining the right biocide, similar studies can be conducted with different biocide concentrations to also determine the appropriate biocide dosage.

Compound | increase in the percentage of dead cells [fold] | relative biocide effectiveness against S. oneidensis biofilms (400 ppm, 4 hours, under the conditions tested)
O=CCCCC=O [glutaraldehyde] | 2.1 | –
tetrakis-hydroxymethyl-phosphonium sulfate [THPS] | 3.1 | more effective than glutaraldehyde
